Assay results: the Deep4Chem optical property database
Blank lines part the entries; values can stand above or below the molecule they belong to.

Test: solvent given as SMILES

SMILES: CN(C)c1ccc(/C=C/c2cc[n+](CCC[n+]3ccc(/C=C/c4ccc(N(C)C)cc4)cc3)cc2)cc1
absorption maximum (in CC1COC(=O)O1): 485 nm
absorption maximum (in CC#N): 488 nm
absorption maximum (in CC(C)=O): 484 nm
absorption maximum (in CC(C)O): 499 nm
absorption maximum (in CCO): 500 nm
absorption maximum (in CN(C)C=O): 485 nm
absorption maximum (in CO): 494 nm
absorption maximum (in CS(C)=O): 485 nm
absorption maximum (in ClC(Cl)Cl): 501 nm
absorption maximum (in O): 466 nm
absorption maximum (in c1ccncc1): 498 nm

SMILES: CCC1=C(C)C2=Cc3c4ccccc4c4n3[B-](c3ccc5cc6ccccc6cc5c3)(Oc3ccccc3-4)[N+]2=C1C (centres undefined)
absorption maximum (in CC#N): 621 nm
absorption maximum (in CCCCCC): 626 nm
absorption maximum (in Cc1ccccc1): 630 nm
absorption maximum (in ClCCl): 627 nm

SMILES: CCN(CC)c1ccc2c(c1)oc(=O)c1c(C)nc3c(c(-c4ccccc4)nn3C)c12
absorption maximum (in ClCCl): 408 nm

SMILES: CCN(CC)c1ccc(-c2nc(Oc3ccc(-c4nc5ccc(Cl)cc5o4)cc3)nc(Oc3ccc(-c4nc5ccc(Cl)cc5o4)cc3)n2)cc1
absorption maximum (in CN(C)C=O): 393 nm

SMILES: CC(C)(C)c1cc2c(c(C(C)(C)C)c1)O[B-](F)(F)[n+]1c-2nc(-c2ccccc2)c2ccccc21
absorption maximum (in Cc1ccccc1): 410 nm

SMILES: C#CCOc1ccc(C2=[N+]3C(=Nc4c(-c5ccccc5)cc(-c5ccc(O)cc5)n4[B-]3(F)F)C(c3ccccc3)=C2)cc1
absorption maximum (in CO): 688 nm
absorption maximum (in Cc1ccccc1): 685 nm
absorption maximum (in ClC(Cl)Cl): 680 nm

SMILES: N#CC1=C(c2ccc(-c3cccs3)s2)CC1
absorption maximum (in C1CCOC1): 366 nm
absorption maximum (in CC#N): 364 nm
absorption maximum (in CCCCCC): 361 nm
absorption maximum (in CCO): 367 nm
absorption maximum (in OCCOCCO): 371 nm
absorption maximum (in c1ccncc1): 372 nm

SMILES: CC(C)(C)c1ccc2c(c1)c1cc(C(C)(C)C)ccc1n2-c1ccc2oc3nc4oc5cc(C(F)(F)F)ccc5c4cc3c2c1
absorption maximum (in ClC(Cl)Cl): 346 nm

SMILES: CCn1c2ccc(/C=C/c3ccc4c(c3)c3cc(-c5nc6ccccc6s5)ccc3n4CC)cc2c2cc(-c3nc4ccccc4s3)ccc21
absorption maximum (in C1CCOC1): 361 nm
absorption maximum (in CCOC(C)=O): 360 nm

SMILES: CCCCN1C(=O)C2=C(c3ccc(-c4ccccc4)cc3)[N-]C(=O)C2=C1c1ccc(-c2ccccc2)cc1
absorption maximum (in ClCCl): 585 nm

SMILES: CCCCCCCCCCCCOc1cc(/C=C/c2ccc3c(c2)C(CC)(CC)c2cc(N4c5ccccc5Sc5ccccc54)ccc2-3)c(OCCCCCCCCCCCC)cc1/C=C/c1ccc2c(c1)C(CC)(CC)c1cc(N3c4ccccc4Sc4ccccc43)ccc1-2
absorption maximum (in C1CCOC1): 442.41 nm
absorption maximum (in CC#N): 436.72 nm
absorption maximum (in CCCCCC): 436.38 nm
absorption maximum (in Cc1ccccc1): 442.93 nm
absorption maximum (in ClCCl): 420 nm

SMILES: CCN(CC)c1ccc(/C=N/C(C#N)=C(C#N)/N=C/c2ccc(N(CC)CC)cc2O)c(O)c1
absorption maximum (in CC#N): 565 nm
absorption maximum (in CN(C)C=O): 571 nm
absorption maximum (in ClCCl): 570 nm

SMILES: CCN(CC)c1ccc2nc3c4ccccc4c(=O)cc-3oc2c1
absorption maximum (in C1COCCO1): 519 nm
absorption maximum (in CC#N): 535 nm
absorption maximum (in CC(C)=O): 533 nm
absorption maximum (in CCCCCC): 508 nm
absorption maximum (in CCO): 549 nm
absorption maximum (in CCOC(C)=O): 524 nm
absorption maximum (in CO): 553 nm
absorption maximum (in CS(C)=O): 552 nm
absorption maximum (in Cc1ccccc1): 524 nm
absorption maximum (in ClCCl): 539 nm

SMILES: c1ccc([B-]2(c3ccccc3)Oc3ccc4ccccc4c3-c3c4ccccc4nc[n+]32)cc1
absorption maximum (in Cc1ccccc1): 451 nm

SMILES: CCN(CC)c1ccc2c(c1)oc(=O)c1cc3c(-c4ccccc4)nn(C)c3nc12
absorption maximum (in ClCCl): 350 nm

SMILES: COc1ccc2cc(/C=C/c3nc(/C=C/c4ccc(N(C)C)cc4)cc(/C=C/c4ccc(N(C)C)cc4)n3)ccc2c1
absorption maximum (in ClCCl): 418 nm

SMILES: N#CC(C#N)=Cc1ccc2nc(C#Cc3ccc(N(c4ccc(C#Cc5nc6ccc(C=C(C#N)C#N)cc6s5)cc4)c4ccc(C#Cc5nc6ccc(C=C(C#N)C#N)cc6s5)cc4)cc3)sc2c1
absorption maximum (in Cc1ccccc1): 440 nm

SMILES: CCc1cc(CC)cc(-n2c3ccccc3c3cc4c(cc32)c2ccccc2n4-c2cc(CC)cc(CC)c2)c1
absorption maximum (in ClC(Cl)Cl): 410 nm

SMILES: O=C1O/C(=C2/C(=O)Oc3ccccc32)C(O)=C1c1ccccc1
absorption maximum (in ClC(Cl)Cl): 388 nm

SMILES: CCCBr
absorption maximum (in CCCCCC): 208 nm

SMILES: c1ccc2c(-c3cc(-c4nccs4)nc(-c4nccs4)c3)cccc2c1
absorption maximum (in CC#N): 324 nm
absorption maximum (in CCCCCC): 325 nm
absorption maximum (in CO): 325 nm
absorption maximum (in ClC(Cl)Cl): 330 nm

SMILES: CN(C)c1[se]c(-c2ccc(Cl)cc2)nc1-c1ccccc1
absorption maximum (in ClC(Cl)Cl): 360 nm

SMILES: Cc1cc(N2c3ccccc3C(C)(C)c3ccccc32)ccc1-c1cc(-c2ccc(N3c4ccccc4C(C)(C)c4ccccc43)cc2C)ncn1
absorption maximum (in Cc1ccccc1): 375.94 nm

SMILES: COc1ccc(/N=N/c2c(O)c3ccccc3n(C)c2=O)c(S(=O)(=O)O)c1
absorption maximum (in C1CCOC1): 449 nm
absorption maximum (in CC(C)=O): 451 nm
absorption maximum (in CCOC(C)=O): 446 nm
absorption maximum (in CO): 448 nm
absorption maximum (in CS(C)=O): 447 nm
absorption maximum (in Cc1ccccc1): 449 nm
absorption maximum (in ClCCl): 451 nm
absorption maximum (in O): 447 nm

SMILES: O=C1c2ccc3c4c(NC5CCCCC5)cc5c6c(ccc(c7c(NC8CCCCC8)cc(c2c37)C(=O)N1C1CCCCC1)c64)C(=O)N(C1CCCCC1)C5=O
absorption maximum (in ClC(Cl)Cl): 703 nm

SMILES: O=P1(c2ccccc2)C2=C(c3ccccc31)[Si](c1ccccc1)(c1ccccc1)c1cc(N(c3ccccc3)c3ccccc3)ccc12 (centres undefined)
absorption maximum (in CC#N): 456 nm
absorption maximum (in CO): 466 nm
absorption maximum (in Cc1ccccc1): 459 nm

SMILES: c1ccc([B-]2(c3ccccc3)Oc3ccc4ccccc4c3-c3c4ccccc4cn[n+]32)cc1
absorption maximum (in Cc1ccccc1): 436 nm

SMILES: CC(C)(C)NC1=C2C=CC=[N+]2[B-](F)(F)n2cccc21
absorption maximum (in C1CCCCC1): 428 nm
absorption maximum (in CC(C)=O): 409.5 nm
absorption maximum (in CCO): 412.5 nm
absorption maximum (in CCOC(C)=O): 412 nm
absorption maximum (in CO): 410 nm
absorption maximum (in OCC(F)(F)F): 406 nm

SMILES: CC(C)(C)c1ccc2c3c(c4ccc(C(C)(C)C)cc4c2c1)=[N+]1C(=C(c2ccccc2)c2cc4c5ccc(C(C)(C)C)cc5c5cc(C(C)(C)C)ccc5c4n2[B-]1(F)F)C=3
absorption maximum (in C1CCCCC1): 693 nm
absorption maximum (in C1CCOC1): 689 nm
absorption maximum (in CC#N): 683 nm
absorption maximum (in Cc1ccccc1): 694 nm
absorption maximum (in ClCCl): 691 nm

The next lines start with the values.

absorption maximum (in CC#N): 373 nm
absorption maximum (in ClCCl): 377 nm
SMILES: COc1cccc(/C=C/C(=O)c2c(O)cc(C)oc2=O)c1

absorption maximum (in C1CCOC1): 426 nm
SMILES: CCCCCOc1cc2oc(=O)c3c4ccc(C#N)cc4c4ccc5cccc6c(c1)c2c3c4c56

absorption maximum (in ClC(Cl)Cl): 388 nm
SMILES: c1ccc(-c2nc(-c3ccccn3)sc2N(c2ccccc2)c2ccccc2)cc1

absorption maximum (in C1CCOC1): 350 nm
SMILES: O=S1(=O)C(c2ccsc2)=C(c2ccsc2)c2ccccc21

absorption maximum (in ClC(Cl)Cl): 570 nm
SMILES: CCCCN1C(=O)c2cc(Oc3ccc(C(C)(C)C)cc3)c3c4c(Oc5ccc(C(C)(C)C)cc5)c(Oc5ccc(C(C)(C)C)cc5)c5c6c(cc(Oc7ccc(C(C)(C)C)cc7)c(c7c(Oc8ccc(C(C)(C)C)cc8)c(Oc8ccc(C(C)(C)C)cc8)c(c2c37)C1=O)c64)C(=O)N(CCCC)C5=O

absorption maximum (in C1CCCCC1): 352 nm
SMILES: CB1C=Cc2ccc3ccccc3c2N1

absorption maximum (in ClC(Cl)Cl): 420 nm
SMILES: C(#Cc1ccncc1)C(C#Cc1ccncc1)=Cc1ccc(C=C(C#Cc2ccncc2)C#Cc2ccncc2)cc1

absorption maximum (in CC#N): 401 nm
absorption maximum (in CO): 401 nm
absorption maximum (in ClCCl): 406 nm
SMILES: COc1ccc(-c2[nH]c(=O)n3c2-c2ccccc2C3=O)c(OC)c1

absorption maximum (in CC#N): 375 nm
SMILES: Cc1ccc2nc3c(=O)[nH]c(=O)[nH]c3nc2c1C

absorption maximum (in ClCCl): 420 nm
SMILES: C(=C\c1cnccn1)/c1ccc(N(c2ccccc2)c2ccc(/C=C/c3cnccn3)cc2)cc1

absorption maximum (in C1CCCCC1): 376 nm
absorption maximum (in CC#N): 380 nm
absorption maximum (in CO): 378 nm
absorption maximum (in ClC(Cl)Cl): 383 nm
SMILES: CN(C)c1ccc(/C=C/c2ccc(-c3nc(C#N)c(C#N)n3C)cc2)cc1

absorption maximum (in ClCCl): 325 nm
SMILES: C(#Cc1cccs1)c1ncc(-c2ccccc2)o1

absorption maximum (in ClCCl): 448 nm
SMILES: O=C1c2ccccc2C2=Nc3cccc4cccc(c34)N12

absorption maximum (in C1COCCO1): 393 nm
SMILES: N#Cc1ccc(/C=C2\N=C(c3ccccc3)NC2=O)cc1

absorption maximum (in ClCCl): 308 nm
SMILES: c1ccc(N(c2ccccc2)c2ccc(-n3ccc4cc(-c5ccc(C6(c7ccccc7)c7ccccc7-c7ccccc76)cc5)ccc43)cc2)cc1

absorption maximum (in C1CCCCC1): 340 nm
absorption maximum (in CC#N): 343 nm
absorption maximum (in CO): 299 nm
absorption maximum (in ClCCl): 345 nm
absorption maximum (in O): 299 nm
SMILES: Oc1ccccc1-c1nc(-c2ccccc2)c2ccccn12

absorption maximum (in CC#N): 472 nm
SMILES: COC(=O)/C=C/c1sc(-c2ccc(N(C)C)s2)c(-c2ccsc2)c1N

absorption maximum (in C1CCOC1): 365 nm
SMILES: C1=C(c2ccccc2)C=C(c2ccccc2)/C1=C/C1CCCCC1

absorption maximum (in CS(C)=O): 345 nm
SMILES: Fc1ccc2sc3nc(-c4ccccc4)sc3c2c1

absorption maximum (in ClCCl): 538 nm
SMILES: CC(C)(C)OC(=O)/C=C/C1=CC2=C(c3ccccc3)c3cccn3[B-](F)(F)[N+]2=C1

absorption maximum (in C1CCOC1): 406 nm
SMILES: COc1cc2c(cc1-c1ccc(Cl)cc1)Cc1c3c(c4c(c1-2)-c1cc(OC)c(-c2ccc(Cl)cc2)cc1C4)C(=O)N(CCC(C)C)C3=O

absorption maximum (in ClCCl): 447 nm
SMILES: N#Cc1cc(/C=C/c2ccc(N(c3ccccc3)c3ccccc3)cc2)ccc1/C=C/c1ccc(/C=C/c2ccc(N(c3ccccc3)c3ccccc3)cc2)cc1C#N

absorption maximum (in CC#N): 383 nm
SMILES: Cc1ccc(-c2ccc(/C=C/c3ccc(N(C)C)cc3)cn2)nc1

absorption maximum (in CCOC(C)=O): 513 nm
SMILES: O=[N+]([O-])c1cc(/N=N/c2cc3c4c(c2)CCCN4CCC3)cc([N+](=O)[O-])c1

absorption maximum (in CC#N): 445 nm
SMILES: Cn1ccc(-c2nc3ccccc3nc2/C=C/N2CCCC2)c1

absorption maximum (in ClCCl): 427 nm
SMILES: COc1cc(OC)cc(C2=[O+][B-](F)(F)OC(c3ccc4cc(OC)ccc4c3)=C2)c1

absorption maximum (in CO): 643 nm
absorption maximum (in ClC(Cl)Cl): 657 nm
absorption maximum (in ClCCl): 658 nm
SMILES: CC[n+]1c(C=C2C(=O)C(C=C3N(C)c4ccccc4C3(C)C)=C2[O-])[se]c2ccccc21

absorption maximum (in ClCCl): 635 nm
SMILES: COc1ccc(-c2c3cc4ccccc4cc3c(C#Cc3ccccc3)c3cc4ccccc4cc23)cc1

absorption maximum (in C1CCCCC1): 435 nm
absorption maximum (in ClC(Cl)Cl): 438.5 nm
absorption maximum (in ClCCl): 438 nm
SMILES: c1cc2cccc3c4cccc5cccc(c(c1)c23)c54
